For series [1], the system named is Cerep SafetyScreen44 Panel (44 targets). Nature of the series: off-target inhibition, Cerep SafetyScreen44 Panel. Here is the method:
Compounds were also tested for off-target inhibition in a Cerep SafetyScreen44 Panel.

Series [2] is described as follows: solubility study in saline, identified visually. It counts as physicochemical. The following applies: 2 mg in 40 μL saline (50 mg/mL), visual; free base unless indicated. As to the method:
Compounds were also tested in a solubility study. Each sample (2 mg) was weighed into a clear 1.75 mL vial followed by the addition of saline (40 μL, to make up to 50 mg/mL). Unless indicated otherwise, the compounds were tested as the free base. Each resulting mixture was vortexed (if required) and the solubility of each was identified visually.

Series [3] has as its target NDM-1 (Klebsiella pneumoniae, UniProt C7C422). Nature of the series: metallo-β-lactamase inhibition assay (nitrocefin). It counts as biochemical. Particulars: 1.5 nM NDM-1, 100 μM nitrocefin, 37° C., pH 7.5. Here is the method: Compounds of the invention were tested in a metallo-β-lactamase inhibition assay to investigate mechanism of action of the compounds. Results are reported as the concentration of test article required to inhibit enzyme activity by 50% (IC50).
Inhibition of metallo-β-lactamase enzyme function was performed at 37° C. in buffer at pH 7.5 (50 mM HEPES, 150 mM NaCl, 0.1 mM ZnSO4, 20 μg/mL PEG4000), containing 1.5 nM NDM-1, 100 μM nitrocefin, and a range of concentrations of compound. Absorbance at 490 nm was measured using a BMG LABTECH FLUOstar Omega microplate reader every minute for 30 minutes. IC50s were determined from the average increase in OD per minute versus the Log 10 concentration of compound using GraphPad Prism.

A short description of series [4]: Cytotoxicity Assay (CellTiter-Glo). It counts as cell-based. Particulars: human, Hep G2 cells (ATCC HB-8065); 24 h exposure; read-out: HepG2 CC50. Here is the method: Cytotoxicity was evaluated in human Hep G2 cells (ATCC HB-8065) seeded at a density of 2×10^5 cells per well and incubated for 24 h at 37° C., 5% CO2. Cells were exposed to a doubling dilution series of test article. After 24 h exposure, the viability of the cells was determined using CellTiter-Glo® (Promega, WI, USA) according to the manufacturer's instructions. Results are reported as the concentration of test article required to reduce cell viability by 50% (CC50).

The subject of series [5] is A. baumannii SG698 NDM-1. Kind of series: Meropenem combination MIC. The class given is cell-based. The following applies: meropenem only (baseline). Here is the method: (§1) MICs were determined by exposing bacteria to serial dilutions of antibacterial agents in MHB-II (cation-adjusted Mueller-Hinton Broth pH 7.4) according to Clinical and Laboratory Standards Institute (CLSI) broth microdilution guidelines (Cockerill et al., 2012).
(§2) Combination MIC were performed as described for MIC determinations with the addition of 4 mg/L test article to MHB-II.
(§3) The compounds of the invention were tested against a primary panel of bacterial strains, columns I-V of Table 2. As appropriate, compounds considered suitable for further investigation were tested against a secondary panel of bacterial strains, columns VI and VII of Table 2.

Series [6] concerns K. pneumoniae NCTC13439 VIM-1. Nature of the series: Meropenem combination MIC. The class given is cell-based. The following applies: meropenem only (baseline). Here is the method: as §1, §2, §3
In series [7] the test system is K. pneumoniae ATCC BAA2146 NDM-1. Kind of series: Meropenem combination MIC. It counts as cell-based. The following applies: meropenem only (baseline). As to the method:
as §1, §2, §3

The subject of series [8] is K. pneumoniae NCTC13440 VIM-1. Nature of the series: Meropenem combination MIC. It counts as cell-based. The following applies: meropenem only (baseline). Here is the method:
as §1, §2, §3

Series [9] has as its system E. coli NCTC13476 IMP. Nature of the series: Meropenem combination MIC. Particulars: meropenem only (baseline). It counts as cell-based. As to the method: as §1, §2, §3
Series [10] relates to E. coli ATCCBAA-2452 NDM-1. Kind of series: Meropenem combination MIC. It counts as cell-based. Particulars: meropenem only (baseline). As to the method:
as §1, §2, §3

Each structure is given as a SMILES string. Structures can show the parent of a compound that is named as a salt.

By IC50 is commonly meant the concentration that gives 50% inhibition. Low readings indicate greater potency in that assay, high ones weaker potency in that assay. As usually defined, the CC50 is the concentration that lowers cell viability or growth by half.

Sequence of NDM-1 (C7C422 whole entry, looked up, species assumed): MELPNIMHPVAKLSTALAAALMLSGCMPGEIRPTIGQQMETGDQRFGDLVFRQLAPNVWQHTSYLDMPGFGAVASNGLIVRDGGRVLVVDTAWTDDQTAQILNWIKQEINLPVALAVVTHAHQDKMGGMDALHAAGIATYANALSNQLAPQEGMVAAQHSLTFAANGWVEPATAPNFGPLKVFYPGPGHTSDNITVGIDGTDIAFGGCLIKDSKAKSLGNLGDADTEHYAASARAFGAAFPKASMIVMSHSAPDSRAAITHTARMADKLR

Regarding `CNCCN(C)C(=O)c1ccc(-c2ccn(S(N)(=O)=O)c2C(=O)O)cc1` [Example 25, 3-[4-[Methyl-[2-(methylamino)ethyl]carbamoyl]phenyl]-1-sulfamoyl-pyrrole-2-carboxylic acid], the “Number of targets ≥50% inhibition at 100 μM” value in [1] was found to be 0. Further, in series [2], the Solubility result was “Soluble”. In [3], this molecule gave an IC50 of 319 nM. In addition, in series [4], the CC50 at 24 h is over 256 µg/mL.
`NS(=O)(=O)n1ccc(-c2ccc(C(=O)N[C@@H]3CCNC[C@H]3O)cc2)c1C(=O)O` [Example 38, 3-[4-[[(3R,4R)-3-Hydroxy-4-piperidyl]carbamoyl]phenyl]-1-sulfamoyl-pyrrole-2-carboxylic acid] had an IC50 in [3] of 652 nM. In [4], the CC50 at 24 h was over 256 µg/mL.
For `NS(=O)(=O)n1ccc(-c2ccc(C(=O)N[C@H]3[C@@H]4CNC[C@@H]43)cc2)c1C(=O)O` [Example 43, 3-[4-[[(1S,5R)-3-Azabicyclo[3.1.0]hexan-6-yl]carbamoyl]phenyl]-1-sulfamoyl-pyrrole-2-carboxylic acid], in that order: 273 nM and over 256 µg/mL.
Take `NCC1CCN(C(=O)c2ccc(-c3ccn(S(N)(=O)=O)c3C(=O)O)cc2)CC1` [Example 44, 3-[4-[4-(Aminomethyl)piperidine-1-carbonyl]phenyl]-1-sulfamoyl-pyrrole-2-carboxylic acid]: inhibition in series [3] was half-maximal at 187 nM (IC50). The CC50 at 24 h in [4] was over 256 µg/mL.
The molecule `NCCNC(=O)c1cccc(-c2ccn(S(N)(=O)=O)c2C(=O)O)c1` [Example 47, 3-[3-(2-Aminoethylcarbamoyl)phenyl]-1-sulfamoyl-pyrrole-2-carboxylic acid hydrochloride] had a half-inhibitory concentration (IC50) in series [3] of 163 nM. Moreover, the CC50 at 24 h in series [4] is over 256 µg/mL.
Consider `CC(=O)N1CCC(c2ccn(S(N)(=O)=O)c2C(=O)O)C1` (stereo not drawn) [Example 59, 3-[1-Acetylpyrrolidin-3-yl]-1-sulfamoyl-pyrrole-2-carboxylic acid], for which, in series [3], the midpoint of inhibition, the IC50, lay at 1610 nM. Moreover, the CC50 at 24 h in series [4] is over 256 µg/mL.
Molecule `NCC(=O)N1CCCC(c2ccn(S(N)(=O)=O)c2C(=O)O)C1` (stereo not drawn) [Example 63, 3-[1-(2-Aminoacetyl)-3-piperidyl]-1-sulfamoyl-pyrrole-2-carboxylic acid] registered an IC50 in series [3] of 1760 nM. Moreover, the CC50 at 24 h in [4] is over 256 µg/mL.
As to `C[C@H](N)C(=O)N1CCC(c2ccn(S(N)(=O)=O)c2C(=O)O)CC1` [Example 69, 3-[1-[(2S)-2-Aminopropanoyl]-4-piperidyl]-1-sulfamoyl-pyrrole-2-carboxylic acid], the “Number of targets ≥50% inhibition at 100 μM” value in series [1] worked out at 0. Moreover, the Solubility result in series [2] is reported as “Soluble”. This molecule displayed an IC50 in [3] of 1480 nM. The CC50 at 24 h in series [4] was over 256 µg/mL.
The molecule `N[C@@H](CO)C(=O)N1CCC(c2ccn(S(N)(=O)=O)c2C(=O)O)CC1` [Example 72, 3-[1-[(2S)-2-Amino-3-hydroxy-propanoyl]-4-piperidyl]-1-sulfamoyl-pyrrole-2-carboxylic acid] returned an IC50 in series [3] of 1570 nM. In addition, the CC50 at 24 h in series [4] is over 256 µg/mL.
For `NS(=O)(=O)n1ccc(C2CCN(C(=O)[C@@H]3CCCN3)CC2)c1C(=O)O` [Example 73, 3-[1-[(2S)-Pyrrolidine-2 carbonyl]-4-piperidyl]-1-sulfamoyl-pyirole-2-carboxylic acid], in that order: 568 nM and over 256 µg/mL.
As to `NS(=O)(=O)n1ccc(C2CCN(C(=O)C3CNC3)CC2)c1C(=O)O` [Example 74, 3-[1-(Azetidine-3-carbonyl)-4-piperidyl]-1-sulfamoyl-pyrrole-2-carboxylic acid], in series [3], the IC50 turned out to be 1550 nM. Besides, in [4], the CC50 at 24 h is over 256 µg/mL.
As for `NCCN1CCC(c2ccn(S(N)(=O)=O)c2C(=O)O)CC1` [Example 85, 3-[1-(2-Aminoethyl)-4-piperidyl]-1-sulfamoyl-pyrrole-2-carboxylic acid], in [3], it took 399 nM to reach half-maximal inhibition (IC50). Moreover, the CC50 at 24 h in series [4] is over 128 µg/mL.
As for `CNCCN(C)C(=O)C1CCC(c2ccn(S(N)(=O)=O)c2C(=O)O)CC1` (stereo not drawn) [Example 87, 3-[4-[Methyl-[2-(methylamino)ethyl]carbamoyl]cyclohexyl]-1-sulfamoyl-pyrrole-2-carboxylic acid], in series [3], the IC50 is 248 nM. The CC50 at 24 h in series [4] was over 256 µg/mL.
As for `NCC(=O)Nc1ccc(-c2ccn(S(N)(=O)=O)c2C(=O)O)cn1` [Example 93, 3-[6-[(2-Aminoacetyl)amino]-3-pyridyl]-1-sulfamoyl-pyrrole-2-carboxylic acid, sodium salt], in series [3], the IC50 was 162 nM. The CC50 at 24 h in [4] is over 256 µg/mL.
For `NCCC(=O)Nc1ccc(-c2ccn(S(N)(=O)=O)c2C(=O)O)cn1` [Example 94, 3-[6-(3-Aminopropanoylamino)-3-pyridyl]-1-sulfamoyl-pyrrole-2-carboxylic acid, sodium salt], in that order: 2490 nM and over 256 µg/mL.
The matching figures for `NCCNc1ccc(-c2ccn(S(N)(=O)=O)c2C(=O)O)cn1` [Example 95, 3-[6-(2-Aminoethylamino)-3-pyridyl]-1-sulfamoyl-pyrrole-2-carboxylic acid hydrochloride]: 377 nM and over 256 µg/mL.
Regarding `C[C@@H](O)[C@H]1C(=O)N2C(C(=O)O)=C(S[C@@H]3CN[C@H](C(=O)N(C)C)C3)[C@H](C)[C@H]12` [Meropenem, meropenem], the “Meropenem MIC (μg/mL) IV A. baumannii SG698 NDM-1” value in [5] is 8 µg/mL. Also, in [6], the “Meropenem MIC (μg/mL) VII K. pneumoniae NCTC13439 VIM-1” value was 0.5 µg/mL. Also, in series [7], the “Meropenem MIC (μg/mL) III K. pneumoniae ATCC BAA2146 NDM-1” value worked out at 16 µg/mL. Besides, the “Meropenem MIC (μg/mL) V K. pneumoniae NCTC13440 VIM-1” value in series [8] came out at 1 µg/mL. Besides, in series [9], the “Meropenem MIC (μg/mL) II E. coli NCTC13476 IMP” value amounted to 4 µg/mL. Besides, the “Meropenem MIC (μg/mL) I E. coli ATCCBAA-2452 NDM-1” value in series [10] is 1 µg/mL.

Source of the values: US12544359B2, “1-aminosulfonyl-2-carboxypyrrole derivatives as metallo-beta-lactamase inhibitors” (INFEX Therapeutics Limited, priority 2019, dated 2026).
